Reference: ChEMBL document CHEMBL1135798, “Structure-activity relationships of the antimalarial agent artemisinin. 6. The development of predictive in vitro potency models using CoMFA and HQSAR methodologies” (2002)

The compounds below were run on Plasmodium falciparum (assay: Antimalarial activity against chloroquine-resistant, mefloquine-sensitive Plasmodium falciparum W2).
Type: functional
With `CCC1(CC)OO[C@]23CCCCC2[C@@H](C)C(=O)OC3O1` (some centres not stated) the “Log RA” value was -0.6.
In the case of `O=S(=O)(c1ccccc1)N1C[C@]2(c3ccccc3)CC[C@@](c3ccccc3)(C1)OO2`, the “Log RA” value was -2.26.
With `C[C@@H]1CC[C@@H]2[C@@H](C)CO[C@@H]3C[C@]4(C)CC[C@@H]1[C@]23OO4` the “Log RA” value was -0.24.
With `C[C@@H]1CCC2[C@@H](C)C(=O)OC3OC(C)(C)OO[C@@]32[C@H]1C` (some centres not stated) the “Log RA” value was -0.86.
In the case of `CC1(C)C[C@]2(c3ccccc3)CC[C@@](c3ccccc3)(C1)OO2`, the “Log RA” value was -2.17.
`CCOC(=O)[C@H](O[C@H]1O[C@@H]2O[C@@]3(C)CC[C@H]4[C@H](C)CC[C@@H]([C@H]1C)[C@@]24OO3)c1ccccc1` was tested, and the “Log RA” value was 0.87.
With `CCOC(=O)[C@@H](O[C@H]1O[C@@H]2O[C@@]3(C)CC[C@H]4[C@H](C)CC[C@@H]([C@H]1C)[C@@]24OO3)c1ccccc1` the “Log RA” value was 1.25.
`CCOC(=O)C[C@H](O[C@H]1O[C@@H]2O[C@@]3(C)CC[C@H]4[C@H](C)CC[C@@H]([C@H]1C)[C@@]24OO3)c1ccccc1` was tested, and the “Log RA” value was 0.9.
`CO[C@H]1O[C@@]2(C)CC[C@H]3CCC[C@@H](CCOCc4cc[n+](C)cc4)[C@]31OO2` was tested, and the “Log RA” value was -0.9.
With `CCC[C@H]1C(=O)O[C@@H]2O[C@@]3(C)CC[C@H]4[C@H](C)CC[C@@H]1[C@@]24OO3` the “Log RA” value was 1.13.
`C=CC[C@H]1C(=O)O[C@@H]2O[C@@]3(C)CC[C@H]4[C@H](C)CC[C@@H]1[C@@]24OO3` was tested, and the “Log RA” value was -0.1.
`C[C@@H]1CC[C@H]2CCO[C@@H]3O[C@@]4(CCc5ccccc5)CC[C@@H]1[C@@]23OO4` was tested, and the “Log RA” value was -1.7.
`CCCC[C@H]1CO[C@@H]2O[C@@]3(C)CC[C@H]4[C@H](C)CC[C@@H]1[C@@]24OO3` was tested, and the “Log RA” value was 1.32.
`CCCC[C@@]12CC[C@H]3[C@H](C)CC[C@H]4CCO[C@H](O1)[C@]43OO2` was tested, and the “Log RA” value was 0.75.
For `C[C@@H]1CC[C@H]2CC(=O)N(Cc3ccc(Cl)cc3)[C@@H]3O[C@@]4(C)CC[C@@H]1[C@@]23OO4`, the “Log RA” value was -0.16.
For `CO[C@H]1O[C@@]2(C)CC[C@H]3CCC[C@@H](CCOCc4ccccc4)[C@]31OO2`, the “Log RA” value was 0.75.
With `CO[C@H]1O[C@]2(C)OO[C@]13[C@H](CCOCc1ccccc1)CCC[C@@H]3CC2(C)C` the “Log RA” value was -1.8.
For `CO[C@H]1O[C@]2(C)OO[C@]13[C@H](CCO)CCC[C@@H]3CC2(C)C`, the “Log RA” value was -1.8.
For `CO[C@H]1O[C@]2(C)OO[C@]13[C@H](CCO)CCC[C@@H]3C[C@H]2C`, the “Log RA” value was -1.8.
In the case of `CCOC(=O)CC[C@@]12CC[C@H]3[C@H](C)CC[C@H]4CC(=O)O[C@H](O1)[C@]43OO2`, the “Log RA” value was 0.37.
For `C[C@@H]1CC[C@H]2CC(=O)O[C@@H]3O[C@@]4(CCCCc5ccccc5)CC[C@@H]1[C@@]23OO4`, the “Log RA” value was 0.45.
`COc1ccc([C@@]23CCC[C@](c4ccc(OC)cc4)(CC2)OO3)cc1` was tested, and the “Log RA” value was -0.67.
With `CC[C@@]12CC[C@H]3[C@H](C)CC[C@H]4CC(=O)O[C@H](O1)[C@]43OO2` the “Log RA” value was 0.05.
In the case of `CCCC(=O)OCC(CC)(CC)OOC(C)(C)C`, the “Log RA” value was -4.
In the case of `CC1(C)OO[C@]23CCCCC2CC(=O)OC3O1` (some centres not stated), the “Log RA” value was -2.237.
With `C=C/N=N/[C@H]1C(=O)O[C@@H]2O[C@]3(C)CC[C@H]4[C@H](C)CC[C@@H]1[C@@]24OO3` the “Log RA” value was -2.7.
In the case of `CC(C)CCN1C(=O)C[C@@H]2CC[C@@H](C)[C@@H]3CC[C@@]4(C)OO[C@@]23[C@H]1O4`, the “Log RA” value was -0.04.
With `C[C@@]12CC[C@H]3CCC[C@H]4CC(=O)O[C@H](O1)[C@@]34OO2` the “Log RA” value was -0.36.
`CC(C)C[C@@]12CC[C@H]3[C@H](C)CC[C@H]4CC(=O)O[C@H](O1)[C@]43O2` was tested, and the “Log RA” value was -4.
For `COC(=O)[C@H](C)COC1O[C@@H]2O[C@@]3(C)CC[C@H]4[C@H](C)CC[C@@H]([C@H]1C)[C@@]24OO3` (some centres not stated), the “Log RA” value was 2.25.
For `CCC[C@H]1C(OCC)O[C@@H]2O[C@@]3(C)CC[C@H]4[C@H](C)CC[C@@H]1[C@@]24OO3` (some centres not stated), the “Log RA” value was -0.04.
`CCN(CC)C(=O)c1ccc(C(=O)OCC[C@@H]2CCC[C@@H]3CC[C@@]4(C)OO[C@]32[C@@H](OC)O4)cc1` was tested, and the “Log RA” value was 0.23.
With `CCCCCC[C@H]1C(=O)O[C@@H]2O[C@@]3(C)CC[C@H]4[C@H](C)CC[C@@H]1[C@@]24OO3` the “Log RA” value was 0.86.
For `C[C@@H]1CC[C@@H]2[C@]34OO[C@](C)(CC[C@@H]13)O[C@H]4OC(Nc1ccccc1)[C@@]2(C)Br` (some centres not stated), the “Log RA” value was 0.18.
In the case of `C[C@@H]1CC[C@H]2[C@@H](C)C(OC(C)(C)C)O[C@@H]3O[C@@]4(C)CC[C@@H]1[C@]32OO4` (some centres not stated), the “Log RA” value was 0.92.
In the case of `C[C@@H]1CC[C@@H]2[C@]34OO[C@](C)(CC[C@@H]13)O[C@H]4OC(Nc1ccccn1)[C@@]2(C)Br` (some centres not stated), the “Log RA” value was -0.09.
In the case of `COC(=O)c1ccc(C(=O)OCC[C@@H]2CCC[C@@H]3CC[C@@]4(C)OO[C@]32[C@@H](OC)O4)cc1`, the “Log RA” value was 0.27.
`CO[C@@H]1O[C@@]2(C)CC[C@H]3CCC[C@@H](CCOC(=O)N(C)C)[C@]31OO2` was tested, and the “Log RA” value was 0.33.
`CCN(CC)C(=O)OCC[C@@H]1CCC[C@@H]2CC[C@@]3(C)OO[C@]21[C@H](OC)O3` was tested, and the “Log RA” value was 0.65.
For `C=C1C(O)O[C@@H]2O[C@@]3(C)CC[C@H]4[C@H](C)CC[C@@H]1[C@@]24OO3` (some centres not stated), the “Log RA” value was -2.39.
`C[C@@H]1CC[C@H]2[C@](C)(O)[C@H](O)O[C@@H]3O[C@@]4(C)CC[C@@H]1[C@]32OO4` was tested, and the “Log RA” value was -0.89.
`C[C@@H]1CC[C@H]2CC(=O)O[C@@H]3O[C@@]4(CCc5ccccc5)CC[C@@H]1[C@@]23O4` was tested, and the “Log RA” value was -4.
In the case of `CO[C@H]1O[C@@]2(C)CC[C@H]3CCC[C@@H](CCOS(=O)(=O)c4cccc5c(N(C)C)cccc45)[C@]31OO2`, the “Log RA” value was 0.03.
For `CCO[C@H]1O[C@@H]2O[C@@]3(C)CC[C@H]4C(C=O)CC[C@@H]([C@H]1C)[C@@]24OO3` (some centres not stated), the “Log RA” value was 0.21.
In the case of `C[C@@H]1CC[C@H]2[C@@H](C)C(CC(C)(F)F)O[C@@H]3O[C@@]4(C)CC[C@@H]1[C@]32OO4` (some centres not stated), the “Log RA” value was -0.17.
`CCO[C@H]1O[C@@H]2O[C@@]3(C)CC[C@H]4C(C)C(=O)C[C@@H]([C@H]1C)[C@@]24OO3` (some centres not stated) was tested, and the “Log RA” value was 0.16.
`C[C@@H]1CC[C@H]2[C@@H](C)C(=O)N(c3ccco3)[C@@H]3O[C@@]4(C)CC[C@@H]1[C@@]23OO4` was tested, and the “Log RA” value was 0.11.
For `C[C@@H]1CC[C@H]2[C@@H](CCCCc3ccccc3)C(=O)O[C@@H]3O[C@@]4(C)CC[C@@H]1[C@]32O4`, the “Log RA” value was -4.
`CO[C@@H]1O[C@@]2(C)CC[C@H]3CC(C)(C)CC[C@]31OO2` was tested, and the “Log RA” value was -0.47.
With `C[C@@H]1CC[C@H]2[C@@H](CCc3ccccc3)C(=O)O[C@@H]3O[C@@]4(C)CC[C@@H]1[C@]32OO4` the “Log RA” value was 0.12.
`CC(C)CN1C(=O)[C@H](C)[C@@H]2CC[C@@H](C)[C@@H]3CC[C@]4(C)O[C@@H]1[C@@]32O4` was tested, and the “Log RA” value was -4.
`CCC[C@H]1C(=O)O[C@@H]2O[C@@]3(C)CC[C@H]4[C@H](C)CC[C@@H]1[C@@]24O3` was tested, and the “Log RA” value was -4.
With `CCOC1C[C@@H]2CC[C@@H](C)[C@@H]3CC[C@@]4(C)OO[C@@]23[C@H](O1)O4` (some centres not stated) the “Log RA” value was 0.43.
In the case of `COCC[C@@H]1CCC[C@@H]2CC[C@@]3(C)OO[C@]21[C@@H](OC)O3`, the “Log RA” value was -0.39.
In the case of `CCOC1O[C@@H]2O[C@@]3(C)CC[C@H]4[C@H](C)CC[C@H]([C@@]24OO3)[C@]1(C)O` (some centres not stated), the “Log RA” value was -0.44.
For `C=CCN1C(=O)[C@H](C)[C@@H]2CC[C@@H](C)[C@@H]3CC[C@@]4(C)OO[C@]32[C@H]1O4`, the “Log RA” value was -0.04.
`C[C@@H]1CC[C@H]2[C@@H](C)CO[C@@H]3O[C@@]4(C)CC[C@@H]1[C@]32O4` was tested, and the “Log RA” value was -4.
With `CC(C)CN1C(=O)C[C@@H]2CC[C@@H](C)[C@@H]3CC[C@@]4(C)OO[C@@]23[C@H]1O4` the “Log RA” value was 0.02.
In the case of `CO[C@@H]1O[C@@]2(C)CC[C@H]3CCCC[C@]31OO2`, the “Log RA” value was -1.04.
With `CO[C@]1(C)CC[C@H]2[C@H](C)CCC[C@]2(C=O)OO1` the “Log RA” value was -3.3.
For `CCO[C@H]1O[C@@H]2O[C@@]3(C)CC[C@H]4C(C)=C(F)C[C@@H]([C@H]1C)[C@@]24OO3`, the “Log RA” value was -0.12.
With `C[C@@H]1CC[C@H]2CC(=O)N(CCc3ccccc3)[C@@H]3O[C@@]4(C)CC[C@@H]1[C@@]23OO4` the “Log RA” value was 0.16.
For `CCO[C@@H]1O[C@@H]2O[C@@]3(C)CC[C@H]4[C@H](C)CC[C@@H]([C@H]1C)[C@@]24OO3`, the “Log RA” value was 0.32.
`CO[C@H]1O[C@@]2(C)CC[C@H]3CCC[C@@H](CCOCc4ccc(-c5ccccc5)cc4)[C@]31OO2` was tested, and the “Log RA” value was 0.32.
`C[C@H]1[C@@H](O)O[C@@H]2O[C@@]3(C)CC[C@H]4[C@H](C)CC[C@@H]1[C@@]24O3` was tested, and the “Log RA” value was -4.
For `C[C@@H]1CC[C@@H]2[C@]34OO[C@](C)(CC[C@@H]13)O[C@H]4OC(=O)[C@@]21CO1`, the “Log RA” value was -2.09.
For `C[C@@H]1CC[C@H]2[C@@H](C)CO[C@H]3C[C@]4(C)CC[C@@H]1[C@@]32OO4`, the “Log RA” value was -2.59.
For `CO[C@H]1O[C@@]2(C)CC[C@H]3CCCC[C@]31OO2`, the “Log RA” value was -0.31.
For `C[C@@H]1CC[C@H]2CC(=O)O[C@@H]3O[C@@]4(CCc5ccccc5)CC[C@@H]1[C@@]23OO4`, the “Log RA” value was -2.
`CCCC[C@H]1C(=O)O[C@@H]2O[C@@]3(CCC(=O)OCC)CC[C@H]4[C@H](C)CC[C@@H]1[C@@]24OO3` was tested, and the “Log RA” value was -1.36.
With `CC(C)C[C@@]12CC[C@H]3[C@H](C)CC[C@H]4CC(=O)O[C@H](O1)[C@]43OO2` the “Log RA” value was -0.35.
`CCCC[C@@]12CC[C@H]3[C@H](C)CC[C@H]4CC(=O)O[C@H](O1)[C@]43OO2` was tested, and the “Log RA” value was -0.74.
